From article PMC2567432 (PLoS ONE, 2008)

What was measured:
[1] = tested on: breast cancer JIMT-1 cells; assay: Cell proliferation WST-1 assay, JIMT-1; assay type: cell-based, human; conditions: JIMT-1, 24 h, WST-1, increasing concentrations
Procedure: (§1) Figure 3 Growth inhibition of different tumor cell lines by polyphenols. […] Following 24-h incubation, cell proliferation was evaluated using the WST-1 assay.
(§2) Tumor cells were cultured in RPMI medium containing 10% fetal calf serum (RPMI-FCS) (PC-3, JIMT-1, MDA-MD 231) or in DMEM-FCS (astrocytoma 1321N1 cells) containing penicillin/streptomycin (100 U penicillin/ml; 100 µg streptomycin/ml) at 37°C/5% CO2. Cytosolic protein extracts of tumor cells were prepared using extraction buffer composed of 25 mM Tris, 2 mM EDTA, 10% Glycerol, 1% Triton ×100, 2 mM DTT, 1mM PMSF, pH. 7.0 containing 0.3% protease inhibitor cocktail. Protein content was determined according to Bradford. Specific activity of enzymes analyzed in cell extracts was expressed as U/mg protein.
(§3) Cell proliferation/vitality of tumor cells (96-well plates; 5000 cells/well) and primary human hepatocytes (24-well plates; 0.25×10^6 cells/well) was assayed using the WST-1 assay according to manufacturer's instructions. Trypan blue exclusion was performed by staining cells with 0.4% aqueous trypan blue solution according to the manufacturer's instructions.

[2] = tested on: JIMT-1 cells; assay: Cellular ATP content (CellTiter-Glo), JIMT-1; assay type: cell-based, human; conditions: JIMT-1, 6 h; curcumin 0–100 µM, MGO 0–1000 µM
Procedure: (§4) Cellular ATP content was determined using the CellTiter-Glo® Luminescent Cell Viability Assay. Data represent the mean±S.D. of independent experiments (n = 12).
(§5) Cell ATP content was determined by means of the CellTiter-Glo® Luminescent Cell Viability Assay according to the manufacturer's instructions (Promega, Madison, USA). […] After 6-h incubation, cells were mixed with test reagents and luminescence was read according to the manufacturer's instructions. A standard curve was prepared from ATP (1 µM to 10 nM) in medium.

[3] = tested on: brain astrocytoma 1321N1 cells; assay: Cell proliferation WST-1 assay, 1321N1; assay type: cell-based; conditions: 1321N1, 24 h; for anti-proliferative effect compared to curcumin: WST-1
Procedure: as §1, §2, §3

[4] = tested on: astrocytoma 1321N1 cells; assay: Cellular ATP content (CellTiter-Glo), 1321N1; assay type: cell-based; conditions: 1321N1, 6 h; curcumin 0–100 µM, MGO 0–1000 µM
Procedure: as §4, §5

[5] = tested on: IL-1β release from LPS-stimulated blood cells; assay: Whole blood assay, LPS-induced IL-1β release (cytometric bead array); assay type: cell-based; conditions: Homo sapiens; heparinized whole blood, LPS 10 ng/ml, 6 h, 37°C
Procedure: Figure 2 Effect of polyphenols on IL-1β release from LPS-stimulated blood cells. Heparinized whole blood was stimulated by LPS in the absence or presence of polyphenols at increasing concentrations and incubated for 6 h at 37°C with 5% CO2. (A) Released IL-1β as measured in cell supernatants. Samples without additives but LPS were set at 100%. (B) The calculated […] values of the respective polyphenols. Data represent mean±S.D. of independent experiments (n = 6).
Whole blood assay was performed as previously described. Accordingly, LPS (10 ng/ml), test substances and 200 µl heparinized human blood of healthy donors, obtained from the blood bank of the University of Leipzig, were co-incubated with serum-free medium (RPMI-SF, 1 ml final volume) in 24-well culture plates for 6 h at 37°C with 5% CO2. Samples were removed, centrifuged at 2000×g for 10 min and supernatants were stored at −20°C until assaying for inflammatory cytokines.
Assessment of cytokine levels in supernatants of human blood cell cultures was accomplished using Cytometric Bead Array (CBA™, BD Biosciences, San Jose, U.S.A). The procedure was carried out according to the manufacturer's instruction. Fluorescence measurement and analysis were performed using a FACSCalibur and the CellQuest software (BD Biosciences).

[6] = target: T1, glyoxalase 1 (Glo1) (Homo sapiens, UniProt Q04760); assay: Inhibition of purified glyoxalase 1 activity (Dixon plot); assay type: biochemical; conditions: purified Glo1 70 mU, substrates MGO and GSH, Dixon plot
T1 construct: Glo1 was purified from human erythrocytes as described earlier; from tissue; host or cells: human erythrocytes
T1 sequence (Q04760 2-184 limits assumed): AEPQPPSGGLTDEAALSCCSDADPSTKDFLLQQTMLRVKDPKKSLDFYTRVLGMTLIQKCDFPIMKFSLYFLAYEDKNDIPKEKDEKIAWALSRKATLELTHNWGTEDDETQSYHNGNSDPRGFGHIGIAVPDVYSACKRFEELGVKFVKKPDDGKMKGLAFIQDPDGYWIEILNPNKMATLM
Procedure: Purified Glo1 (70 mU) was incubated with increasing concentrations of different polyphenols at three substrate concentrations; and enzyme activity was recorded (n = 3). The inhibitor concentration was plotted vs. the reciprocal of enzyme activity (1/v) in Dixon plots.
Glo1 was purified from human erythrocytes as described earlier. Briefly, erythrocytes were treated with butanol/chloroform to denature hemoglobin followed by acetone and ammonium sulphate fractionation.
The determination of Glo1 (E.C.4.4.1.5) activity has been described previously. […] The inhibition constant, Ki value of the inhibitors was evaluated by Dixon plot showing the reciprocal of enzyme velocity against the inhibitor concentration at variable concentrations of the substrate. Human Glo2 (E.C.3.1.2.6) was measured using the substrate S-lactoylglutathione as described earlier.
A goodness-of-fit criterion (Akaike's information criterion, AIC) was used for falsification of incompatible inhibition models. […] Spearman's rank correlation test was applied to evaluate the correlation between the IC50 values of pro-inflammatory cytokine release and the Ki-values of various polyphenols. Data were presented as means±S.D. of at least three independent experiments. […] In all other tests, significance has been considered at values of p<0.05.

Row | Structure (SMILES) | IC50 [5] [µM] | Ki [6] [µM] | anti-proliferative effect compared to curcumin [3] | other results
1 | CC(=O)C=O [MGO, methylglyoxal, reference compound] |  |  |  | effect on cell proliferation [1]: anti-proliferative properties; cellular ATP content [2]: comparable effects; effect on cell proliferation ([3]; WST-1, increasing concentrations): anti-proliferative properties; cellular ATP content [4]: comparable effects
2 | O=c1cc(-c2ccc(O)c(O)c2)oc2cc(O)cc(O)c12 [luteolin] | 68 | 35 ± 6.3 |  | 
3 | O=c1c(O)c(-c2ccc(O)c(O)c2)oc2cc(O)cc(O)c12 [quercetin] | 20 |  | less anti-proliferative | 
4 | O=c1c(O)c(-c2cc(O)c(O)c(O)c2)oc2cc(O)cc(O)c12 [myricetin] |  |  | less anti-proliferative | 
5 | O=c1c(O)c(-c2ccc(O)cc2)oc2cc(O)cc(O)c12 [kaempferol] | 34.6 | 21 ± 3.8 |  | 
6 | C[C@@H]1O[C@@H](OC[C@H]2O[C@@H](Oc3c(-c4ccc(O)c(O)c4)oc4cc(O)cc(O)c4c3=O)[C@H](O)[C@@H](O)[C@@H]2O)[C@H](O)[C@H](O)[C@H]1O [rutin] |  | 140 ± 15 |  | 
